Measured values reported in US6093838A, “Amines substituted with a dihydro-benzofuranyl or with a dihydro-isobenzofuranyl group, an aryl or heteroaryl group and an alkyl group, having retinoid-like biological activity” (Allergan Sales, Inc., priority 1999, dated 2000).

Assays:
RARα = molecular target: T1, RARα (Homo sapiens, UniProt P10276); experiment: ligand binding assay, RARα; conditions: read-out: RAR Bind. Ki α
T1 sequence (P10276 1-462): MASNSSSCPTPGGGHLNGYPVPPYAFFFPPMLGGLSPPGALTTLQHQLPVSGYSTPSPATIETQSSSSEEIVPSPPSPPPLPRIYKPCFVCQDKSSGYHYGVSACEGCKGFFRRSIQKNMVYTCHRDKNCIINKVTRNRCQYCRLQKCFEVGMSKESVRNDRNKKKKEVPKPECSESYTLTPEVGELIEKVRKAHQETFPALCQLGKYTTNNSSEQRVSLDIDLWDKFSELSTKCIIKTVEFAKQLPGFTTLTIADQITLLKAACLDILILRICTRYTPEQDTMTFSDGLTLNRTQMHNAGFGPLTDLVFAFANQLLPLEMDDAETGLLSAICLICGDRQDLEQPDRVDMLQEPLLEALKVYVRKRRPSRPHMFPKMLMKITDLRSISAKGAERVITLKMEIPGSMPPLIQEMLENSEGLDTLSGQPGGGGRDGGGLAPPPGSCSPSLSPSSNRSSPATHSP
Description: (§1) Other assays described below, measure the ability of the compounds of the present invention to bind to, and/or activate various retinoid receptor subtypes. When in these assays a compound binds to a given receptor subtype and activates the transcription of a reporter gene through that subtype, then the compound is considered an agonist of that receptor subtype. […] In the below described assays the ability of the compounds to bind to RARα, RARβ, RARγ, RXRα, RXRβ and RXRγ receptors, and the ability or inability of the compounds to activate transcription of a reporter gene through these receptor subtypes can be tested. […] However, some of the compounds of the invention may behave as retinoid antagonists or partial antagonists and/or as inverse agonists. Because of the complex distribution of the different retinoid receptors in various organs of the mammalian body partial agonists and partial antagonists and compounds which have the characteristics of both may lend themselves to particularly useful therapeutic applications and may avoid serious side effects of conventional retinoid drugs.
(§2) A holoreceptor transactivation assay and a ligand binding assay which measure the antagonist/agonist like activity of the compounds of the invention, or their ability to bind to the several retinoid receptor subtypes, respectively, are described in published PCT Application No. WO WO93/11755 (particularly on pages 30-33 and 37-41) published on Jun. 24, 1993, the specification of which is also incorporated herein by reference. A detailed experimental procedure for holoreceptor transactivations has been described by Heyman et al. Cell 68, 397-406, (1992); Allegretto et al. J. Biol. Chem. 268, 26625-26633, and Mangelsdorf et al. The Retinoids: Biology, Chemistry and Medicine, pp 319-349, Raven Press Ltd., New York, which are expressly incorporated herein by reference. The results obtained in this assay are expressed in EC50 numbers, as they are also in the chimeric receptor transactivation assay. The results of ligand binding assay are expressed in Kd numbers. (See Cheng et al. Biochemical Pharmacology Vol. 22 pp 3099-3108, expressly incorporated herein by reference.)
(§3) Table 1 discloses the activity of certain exemplary compounds of the invention in the above-described chimeric receptor transactivation assay, holoreceptor transactivation assay and a ligand binding assays. Particularly, the transactivation data pertaining to RAR receptors were obtained in the chimeric assay, and the data pertaining to transactivation of RXR receptors were obtained in the holoreceptor transactivation assay.

RXRγ [1] = experiment: ligand binding assay, RXRγ; conditions: read-out: RXR Bind Ki γ
Description: as §1, §2, §3

RXRα [2] = molecular target: T2, RXRα (Homo sapiens, UniProt P19793); experiment: holoreceptor transactivation assay, RXRα; format: cell-based; conditions: for EC50: holoreceptor transactivation, RXRα, read-out: RXR Trans. EC50 α; for Emax: relative to 10^-6 M cyclopropyl penta-2,4-dienoic acid reference (RXRs), read-out: % efficacy (RXRα transactivation)
T2 construct: expressed in transfected cells
T2 sequence (P19793 1-462): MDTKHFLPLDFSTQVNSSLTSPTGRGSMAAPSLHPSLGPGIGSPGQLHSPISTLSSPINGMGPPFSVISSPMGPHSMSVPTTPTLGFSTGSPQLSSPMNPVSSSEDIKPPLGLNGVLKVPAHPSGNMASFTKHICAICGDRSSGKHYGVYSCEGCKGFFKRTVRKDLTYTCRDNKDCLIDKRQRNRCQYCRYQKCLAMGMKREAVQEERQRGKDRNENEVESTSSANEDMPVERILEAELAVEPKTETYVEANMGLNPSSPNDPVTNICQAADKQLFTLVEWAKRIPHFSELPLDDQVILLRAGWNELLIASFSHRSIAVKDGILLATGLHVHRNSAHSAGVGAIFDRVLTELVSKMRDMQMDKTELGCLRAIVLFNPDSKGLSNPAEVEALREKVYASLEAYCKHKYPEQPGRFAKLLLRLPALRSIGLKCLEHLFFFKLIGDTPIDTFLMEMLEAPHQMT
Description: as §1, §2, §3

RARγ = molecular target: T3, RARγ (Homo sapiens, UniProt P13631); experiment: ligand binding assay, RARγ; conditions: read-out: RAR Bind. Ki γ
T3 sequence (P13631 1-454): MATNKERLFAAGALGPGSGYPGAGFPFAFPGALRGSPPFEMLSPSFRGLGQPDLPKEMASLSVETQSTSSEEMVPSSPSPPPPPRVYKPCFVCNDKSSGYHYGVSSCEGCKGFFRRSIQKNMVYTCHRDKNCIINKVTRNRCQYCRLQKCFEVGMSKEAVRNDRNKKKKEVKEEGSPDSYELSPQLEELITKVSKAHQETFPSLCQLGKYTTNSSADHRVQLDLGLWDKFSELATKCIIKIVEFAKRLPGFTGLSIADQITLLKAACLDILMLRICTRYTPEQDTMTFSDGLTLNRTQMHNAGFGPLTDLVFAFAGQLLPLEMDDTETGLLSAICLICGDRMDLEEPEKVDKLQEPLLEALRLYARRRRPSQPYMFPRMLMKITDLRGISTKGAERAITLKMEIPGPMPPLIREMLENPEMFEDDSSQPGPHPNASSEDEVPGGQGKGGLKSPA
Description: as §1, §2, §3

RXRβ [3] = experiment: ligand binding assay, RXRβ; conditions: read-out: RXR Bind Ki β
Description: as §1, §2, §3

RARβ = molecular target: T4, RARβ (Homo sapiens, UniProt P10826); experiment: ligand binding assay, RARβ; conditions: read-out: RAR Bind. Ki β
T4 sequence (P10826 1-448 isoform P10826-2): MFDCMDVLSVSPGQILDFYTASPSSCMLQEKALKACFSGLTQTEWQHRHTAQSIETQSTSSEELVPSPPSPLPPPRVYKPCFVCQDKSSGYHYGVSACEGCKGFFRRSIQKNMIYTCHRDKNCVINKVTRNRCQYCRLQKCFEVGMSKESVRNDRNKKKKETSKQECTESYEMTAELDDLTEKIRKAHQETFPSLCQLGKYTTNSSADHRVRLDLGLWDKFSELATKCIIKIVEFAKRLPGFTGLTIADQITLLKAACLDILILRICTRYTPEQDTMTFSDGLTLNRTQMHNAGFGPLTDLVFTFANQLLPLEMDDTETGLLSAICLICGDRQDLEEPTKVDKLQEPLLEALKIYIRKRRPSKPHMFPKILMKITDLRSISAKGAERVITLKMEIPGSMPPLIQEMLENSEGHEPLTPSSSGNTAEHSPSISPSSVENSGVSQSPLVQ
Description: as §1, §2, §3

RXRα [4] = molecular target: T2, RXRα; experiment: ligand binding assay, RXRα; conditions: read-out: RXR Bind Ki α
Description: as §1, §2, §3

RXRγ [5] = molecular target: T5, RXRγ (Mus musculus, UniProt P28705); experiment: holoreceptor transactivation assay, RXRγ; format: cell-based; conditions: for EC50: holoreceptor transactivation, RXRγ, read-out: RXR Trans. EC50 γ; for Emax: relative to 10^-6 M cyclopropyl penta-2,4-dienoic acid reference (RXRs), read-out: % efficacy (RXRγ transactivation)
T5 construct: expressed in transfected cells
T5 sequence (P28705 1-463): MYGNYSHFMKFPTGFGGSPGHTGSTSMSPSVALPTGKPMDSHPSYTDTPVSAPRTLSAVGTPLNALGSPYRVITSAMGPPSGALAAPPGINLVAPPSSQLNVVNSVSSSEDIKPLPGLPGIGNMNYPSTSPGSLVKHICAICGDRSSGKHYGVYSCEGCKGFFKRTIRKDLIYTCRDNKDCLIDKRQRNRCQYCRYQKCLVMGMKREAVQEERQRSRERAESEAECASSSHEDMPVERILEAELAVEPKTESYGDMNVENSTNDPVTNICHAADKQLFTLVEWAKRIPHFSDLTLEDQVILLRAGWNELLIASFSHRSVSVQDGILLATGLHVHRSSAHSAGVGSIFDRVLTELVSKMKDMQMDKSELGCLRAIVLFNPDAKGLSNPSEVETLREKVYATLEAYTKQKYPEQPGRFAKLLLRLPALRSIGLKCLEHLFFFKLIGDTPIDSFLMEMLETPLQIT
Description: as §1, §2, §3

RXRβ [6] = molecular target: T6, RXRβ (Mus musculus, UniProt P28704); experiment: holoreceptor transactivation assay, RXRβ; format: cell-based
T6 construct: expressed in transfected cells
T6 sequence (P28704 1-520): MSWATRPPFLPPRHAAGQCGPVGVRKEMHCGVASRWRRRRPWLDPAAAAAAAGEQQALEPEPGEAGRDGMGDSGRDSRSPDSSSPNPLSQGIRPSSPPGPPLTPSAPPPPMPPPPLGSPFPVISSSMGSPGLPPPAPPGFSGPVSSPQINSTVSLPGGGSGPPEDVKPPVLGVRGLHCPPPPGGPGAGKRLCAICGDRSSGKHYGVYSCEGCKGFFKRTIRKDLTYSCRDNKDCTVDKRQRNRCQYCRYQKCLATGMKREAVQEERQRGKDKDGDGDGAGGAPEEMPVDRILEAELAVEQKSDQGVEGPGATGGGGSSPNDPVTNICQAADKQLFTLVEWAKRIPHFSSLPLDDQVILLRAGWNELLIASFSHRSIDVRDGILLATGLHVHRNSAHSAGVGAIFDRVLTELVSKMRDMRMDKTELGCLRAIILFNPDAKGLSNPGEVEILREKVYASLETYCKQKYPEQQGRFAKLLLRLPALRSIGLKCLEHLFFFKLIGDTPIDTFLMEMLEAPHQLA
Description: as §1, §2, §3

Ki (RARα) | Ki (RXRγ [1]) | EC50 (RXRα [2]) | Emax (RXRα [2]) | Ki (RARγ) | Ki (RXRβ [3]) | Ki (RARβ) | Ki (RXRα [4]) | EC50 (RXRγ [5]) | Emax (RXRγ [5]) | EC50 (RXRβ [6]; holoreceptor transactivation, RXRβ, read-out: RXR Trans. EC50 β) | Emax (RXRβ [6]; relative to 10^-6 M cyclopropyl penta-2,4-dienoic acid reference (RXRs), read-out: % efficacy (RXRβ transactivation)) | Compound
> 30 µM | > 100 µM | 1 µM | 75% | > 30 µM | > 100 µM | > 30 µM | 9.2 µM | – | – | – | – | Cc1cc(N(c2ccc(C(=O)O)cc2)C(C)C)cc2c1OCC2(C)C [Compound 41, 4-[Isopropyl-(3,3,7-trimethyl-2,3-dihydro-benzofuran-5-yl)-amino]-benzoic acid]
9.4 µM | > 10 µM | > 1 µM | 25% | 4.5 µM | > 10 µM | > 10 µM | > 10 µM | > 1 µM | 15% | – | – | CCc1cc(N(C)c2ccc(C(=O)O)cc2)cc2c1OCC2(C)C [Compound 28, 4-[Methyl-(7-ethyl-3,3-dimethyl-2,3-dihydro-benzofuran-5-yl)-amino]-benzoicacid]
> 30 µM | > 100 µM | – | – | 6.7 µM | > 100 µM | > 30 µM | 10 µM | – | – | – | – | Cc1cc(N(C)c2ccc(C(=O)O)cc2)cc2c1OCC2(C)C [Compound 26, 4-[Methyl-(3,3,7-trimethyl-2,3-dihydro-benzofuran-5-yl)-amino]-benzoic acid]
– | – | 0.011 µM | 119% | – | – | – | – | 0.018 µM | 120% | 0.073 µM | 113% | CCN(c1ccc(C(=O)O)cc1)c1cc2c(c(C(C)C)c1C)OCC2(C)C [Compound 70, 4-[Ethyl-(7-isopropyl-3,3,6-trimethyl-2,3-dihydro-benzofuran-5-yl)-amino]-benzoic acid]
